Literature values in US20210205766A1, “METHODS AND RELATED APPARATUS FOR PROVIDING A PROCESSING SOLUTION FOR A FOOD PROCESSING APPLICATION” (Zee Company, Inc., priority 2016, published 2021).

Details: about half active (free), about half dissociated (bound) at pH of about 8.4

peroxyacetic acid [PAA]
pKA: about 8.4
